Read-outs that look alike come from different tables or passages of the source.
Columns and labels:
Type in all cases: cell-based
[1] = tested on: SW620 cells; assay: In vitro cytotoxicity assay, CellTiter-Glo, 96 hours after treatment, target non-expressing cells; conditions: read-out: SW620 Antibody IC50
Experimental: (§1) In vitro cytotoxicity assays were carried out using various antibodies, payloads (i.e., agent moieties), and amine donor units. For mAb2 (a chimeric IgG1 antibody), target expressing (A431, OVCAR3, BxPC3 and HT-29) or non-expressing (SW620) cells were seeded on white walled clear bottom plates at 2000 cells/well for 24 hours before treatment. […] Cell viability was determined by CellTiter-Glo® Luminescent Cell Viability Assay 96 (Promega, Madison Wis.) 96 hours after treatment. […] IC50 was calculated by Prism software.

[2] = tested on: A431 cells; assay: In vitro cytotoxicity assay, CellTiter-Glo, 96 hours after treatment (mAb2 conjugates and free compounds); conditions: Homo sapiens, A-431, 96 h, read-out: A431 Antibody IC50 (nM)
Experimental: as §1

[3] = tested on: HT-29 cells; assay: as above; conditions: Homo sapiens, HT-29, target expressing, column also holds free compounds, read-out: HT-29 Antibody IC50
Experimental: as §1

[4] = tested on: BxPC3 cells; assay: as above; conditions: BxPC3, target expressing, column also holds free compounds, read-out: BxPC3 Antibody IC50
Experimental: as §1

Compound	IC50 ([1]; Homo sapiens, SW-620, values only for free compounds)	IC50 [2]	IC50 [3]	IC50 ([1]; values only for free compounds)	IC50 [4]
CO[C@H]1/C=C\C=C(/C)C(=O)NC2=CC(=O)C(NCCCCNC(=O)[C@H](CCCCN)NC(C)=O)=C(C[C@@H](C)C[C@H](OC)[C@H](O)[C@@H](C)/C=C(\C)[C@@H]1OC(N)=O)C2=O [Sample 26, AcLys-Putrescinyl-Geldanamycin]	> 1000 nM	> 1000 nM			
CC[C@H](C)[C@@H](C(CC(=O)N1CCCC1C(OC)[C@@H](C)C(=O)NC(Cc1ccccc1)c1nccs1)OC)N(C)C(=O)C(NC(=O)[C@H](C(C)C)N(C)C(=O)CNC(=O)C(C)CCCCN)C(C)C (stereo partly drawn) [Sample 29, AcLysGly-MMAD]		8.42 nM	5.14 nM		
VC-PABC-MMAF [Sample 24]				483 nM	427 nM

From patent publication US20130230543A1, “ENGINEERED POLYPEPTIDE CONJUGATES AND METHODS FOR MAKING THEREOF USING […]” (priority 2010, published 2013)
